Laboratory results as given in ChEMBL document CHEMBL5335817, “Discovery and optimization of (2-naphthylthio)acetic acid derivative as selective Bfl-1 inhibitor” (Bioorg Med Chem Lett, 2024).

What was measured:
Bcl-2-related protein A1 [1] = biological target: T1, Bcl-2-related protein A1 (Homo sapiens, UniProt Q16548); assay: Inhibition of Bfl-1 (unknown origin) assessed as inhibition constant
T1 sequence (Q16548 whole entry): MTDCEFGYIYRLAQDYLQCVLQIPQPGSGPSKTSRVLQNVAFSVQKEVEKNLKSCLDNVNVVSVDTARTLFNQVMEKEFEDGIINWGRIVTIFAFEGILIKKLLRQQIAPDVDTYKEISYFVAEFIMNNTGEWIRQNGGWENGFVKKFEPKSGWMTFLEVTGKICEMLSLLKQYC

[2] = biological target: T2, Induced myeloid leukemia cell differentiation protein Mcl-1 (Homo sapiens, UniProt Q07820)
T2 sequence (Q07820 whole entry): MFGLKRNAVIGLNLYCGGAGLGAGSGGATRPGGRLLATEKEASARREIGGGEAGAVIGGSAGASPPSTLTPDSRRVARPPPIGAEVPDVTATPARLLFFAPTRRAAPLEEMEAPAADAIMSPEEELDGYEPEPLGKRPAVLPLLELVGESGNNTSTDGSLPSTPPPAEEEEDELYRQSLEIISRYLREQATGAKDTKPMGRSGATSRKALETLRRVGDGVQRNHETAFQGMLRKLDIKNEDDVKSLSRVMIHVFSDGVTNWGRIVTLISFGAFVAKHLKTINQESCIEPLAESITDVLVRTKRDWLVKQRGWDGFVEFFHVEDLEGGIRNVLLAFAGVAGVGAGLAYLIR
Description: Inhibition of Mcl-1 (unknown origin) assessed as inhibition constant

Bcl-2-related protein A1 [3] = biological target: T1, Bcl-2-related protein A1
Description: Inhibition of recombinant Bfl-1 (1-152) (unknown origin) by TR-FRET assay

Bcl-2-like protein 1 = Bcl-2-like protein 1 (Homo sapiens, UniProt Q07817); assay: Inhibition of GST fused Bcl-xL (unknown origin) incubated for 5 min by TR-FRET assay
Sequence of Bcl-2-like protein 1 (Q07817 whole entry, the tested form may be a part): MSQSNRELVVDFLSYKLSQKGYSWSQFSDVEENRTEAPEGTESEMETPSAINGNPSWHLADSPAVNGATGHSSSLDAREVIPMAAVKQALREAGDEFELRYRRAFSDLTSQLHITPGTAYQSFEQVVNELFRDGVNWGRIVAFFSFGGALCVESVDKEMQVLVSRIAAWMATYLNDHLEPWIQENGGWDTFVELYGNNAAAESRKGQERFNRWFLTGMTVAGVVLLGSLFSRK

Bcl-2-like protein 2 = biological target: T3, Bcl-2-like protein 2 (Homo sapiens, UniProt Q92843); assay: Inhibition of GST fused Bcl-w (unknown origin) incubated for 5 min by TR-FRET assay
T3 sequence (Q92843 whole entry): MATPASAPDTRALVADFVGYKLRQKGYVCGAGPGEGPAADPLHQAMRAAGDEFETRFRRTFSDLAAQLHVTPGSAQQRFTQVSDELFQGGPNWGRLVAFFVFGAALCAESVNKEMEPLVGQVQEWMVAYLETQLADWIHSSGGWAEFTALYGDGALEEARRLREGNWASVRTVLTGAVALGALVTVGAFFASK

[4] = biological target: Apoptosis regulator Bcl-2 (Homo sapiens, UniProt P10415); assay: Inhibition of GST fused Bcl-2 (unknown origin) incubated for 5 min by TR-FRET assay
Sequence of Apoptosis regulator Bcl-2 (P10415 whole entry, the tested form may be a part): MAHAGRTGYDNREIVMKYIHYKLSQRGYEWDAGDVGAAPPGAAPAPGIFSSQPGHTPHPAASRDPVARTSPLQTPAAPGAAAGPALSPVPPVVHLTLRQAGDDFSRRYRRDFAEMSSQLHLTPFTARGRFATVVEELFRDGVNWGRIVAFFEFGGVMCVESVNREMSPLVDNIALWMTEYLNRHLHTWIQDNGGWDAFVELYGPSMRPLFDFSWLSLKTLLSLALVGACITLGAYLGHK

[5] = biological target: T2, Induced myeloid leukemia cell differentiation protein Mcl-1; assay: Inhibition of GST fused Mcl-1 (unknown origin) incubated for 5 min by TR-FRET assay
Bcl-2-related protein A1 [6] = biological target: T1, Bcl-2-related protein A1; assay: Inhibition of Bfl-1 (unknown origin) incubated for 30 min by fluorescence polarization assay
Bcl-2-related protein A1 [7] = biological target: T1, Bcl-2-related protein A1; assay: Inhibition of GST-tagged Bfl-1 (unknown origin) incubated for 60 min by TR-FRET assay

SMILES	Ki (Bcl-2-related protein A1 [1]) [µM]	IC50 (Bcl-2-related protein A1 [3]) [µM]	further results
COC(=O)CSc1cc(NS(=O)(=O)c2ccc(-c3ccccc3)cc2)c2ccccc2c1OC	> 50	–	–
O=C(O)CSc1cc(NS(=O)(=O)c2ccc(-c3ccccc3)cc2)c2ccccc2c1O	2.21	–	Ki [2]: 4.71 µM
O=C(O)CSc1cc(NS(=O)(=O)c2cccs2)c2ccccc2c1O	–	4.61	–
COc1c(SCC(=O)O)cc(NS(=O)(=O)c2ccc(C)cc2)c2ccccc12	> 50	–	–
O=C(O)CSc1cc(NS(=O)(=O)c2ccc(Br)cc2)c2ccccc2c1O	3.17	8.41	Ki [2]: 1.91 µM
COc1ccc(S(=O)(=O)Nc2cc(SCC(=O)O)c(OC)c3ccccc23)cc1	> 50	–	–
CCOC(=O)CS(=O)(=O)c1nc(-c2ccc(F)cc2)cc(C(F)(F)F)n1	–	–	IC50 (Bcl-2-like protein 1): > 100 µM; IC50 (Bcl-2-like protein 2): > 100 µM; IC50 [4]: > 100 µM; IC50 [5]: > 100 µM
COc1ccc(C(c2c(-c3ccccc3)n(O)c3ccccc23)N2CCN(C)CC2)cc1 (stereo unspecified)	–	–	IC50 (Bcl-2-related protein A1 [6]): 0.8 µM; IC50 (Bcl-2-related protein A1 [7]): 1.4 µM
CC(C)=CCC[C@]1(C)C=Cc2c(O)c3c(c(CC=C(C)C)c2O1)O[C@]12C(=C[C@@H]4C[C@H]1C(C)(C)O[C@@]2(C/C=C(/C)C(=O)O)C4=O)C3=O [GAMBOGIC ACID]	–	0.176	–
